What is called inhibition is the change of the read-out against control, counted positive when it falls. For orientation: IC50 means the concentration at which inhibition is half-maximal.

The values that follow come from ChEMBL document CHEMBL5625254, “Design, synthesis and evaluation of ursodeoxycholic acid-cinnamic acid hybrids as potential anti-inflammatory agents by inhibiting Akt/NF-κB and MAPK signaling pathways” (Eur J Med Chem, 2023).

Data set [1] relates to RAW264.7. Description: Anti-inflammatory activity in mouse RAW264.7 cells assessed as inhibition of LPS-induced NO production at 10 uM incubated for 24 hrs relative to control. The class given is functional.
Data set [2] has as its system RAW264.7. Description: Anti-inflammatory activity in mouse RAW264.7 cells assessed as decrease in LPS-induced Akt phosphorylation at 5 to 20 uM preincubated for 24 hrs followed by LPS treatment for 30 mins by Western blot analysis. The class given is functional, cell-based. Conditions: dose 5-20 µM, time 24.5 hrs.
The test system of data set [3] is RAW264.7. Description: Anti-inflammatory activity in mouse RAW264.7 cells assessed as decrease in LPS-induced JNK phosphorylation at 5 to 20 uM incubated for 24 hrs by Western blot analysis. The class given is functional, cell-based. Conditions: dose 5-20 µM.
Data set [4] deals with RAW264.7. Description: Anti-inflammatory activity in mouse RAW264.7 cells assessed as decrease in LPS-induced COX-2 level at 5 to 20 uM incubated for 24 hrs by Western blot analysis. Format: functional, cell-based. Conditions: dose 5-20 µM.
Data set [5] concerns RAW264.7. Description: Anti-inflammatory activity in mouse RAW264.7 cells assessed as decrease in LPS-induced TNF-alpha level incubated for 24 hrs by ELISA. The note with it: dose 5-20 µM. The class given is functional, cell-based. For orientation: In an ELISA, binding on a coated surface is turned into a signal by an enzyme label.
Data set [6] deals with RAW264.7. Description: Anti-inflammatory activity in mouse RAW264.7 cells assessed as decrease in LPS-induced iNOS level at 5 to 20 uM incubated for 24 hrs by Western blot analysis. The class given is functional, cell-based. The note with it: dose 5-20 µM. On the technique in general: Immunoblotting shows a protein as a band on a membrane.
Data set [7] concerns Mus musculus. Description: Anti-inflammatory activity in endotoxemia ICR mouse model assessed as decrease in LPS-induced serum TNF-alpha level at 10 to 20 mg/kg, IG for 7 days consecutively followed by LPS treatment measured after 24 hrs by ELISA. The class given is functional, organism-based. The note with it: dose 10-20 mg/kg, time 8.0 day.
Data set [8] relates to RAW264.7. Description: Anti-inflammatory activity in mouse RAW264.7 cells assessed as decrease in LPS-induced ERK phosphorylation at 5 to 20 uM incubated for 24 hrs by Western blot analysis. Format: functional, cell-based. Conditions: dose 5-20 µM.
Data set [9] has as its system RAW264.7. Description: Anti-inflammatory activity in mouse RAW264.7 cells assessed as inhibition of LPS-induced NO production incubated for 24 hrs. Format: functional, cell-based.
Data set [10] deals with Mus musculus. Description: Anti-inflammatory activity in endotoxemia ICR mouse model assessed as decrease in LPS-induced serum IL-6 level at 10 to 20 mg/kg, IG for 7 days consecutively followed by LPS treatment measured after 24 hrs by ELISA. Format: functional, organism-based. Conditions: dose 10-20 mg/kg, time 8.0 day.
Data set [11] has as its system RAW264.7. Description: Anti-inflammatory activity in LPS-stimulated mouse RAW264.7 cells assessed as decrease in p65 level in nucleus at 5 to 20 uM preincubated for 24 hrs followed by LPS treatment for 30 mins by Western blot analysis. The note with it: dose 5-20 µM, time 24.5 hrs. The class given is functional, cell-based.
Data set [12] concerns RAW264.7. Description: Anti-inflammatory activity in mouse RAW264.7 cells assessed as decrease in LPS-induced IL-1beta mRNA level incubated for 24 hrs by RT-PCR analysis. Conditions: dose 5-20 µM. Format: functional, cell-based.
The subject of data set [13] is RAW264.7. Description: Anti-inflammatory activity in mouse RAW264.7 cells assessed as decrease in LPS-induced COX-2 mRNA level incubated for 24 hrs by RT-PCR analysis. Format: functional, cell-based. Conditions: dose 5-20 µM.
Data set [14] has as its system RAW264.7. Description: Cytotoxicity against mouse RAW264.7 cells assessed as cell viability at 20 uM incubated for 24 hrs by CCK8 assay. Format: toxicity, cell-based. The note with it: raw264.7, 24 h. (In general: Tetrazolium dyes change colour on reduction, which living cells bring about.)
For data set [15], the system named is RAW264.7. Description: Anti-inflammatory activity in mouse RAW264.7 cells assessed as decrease in LPS-induced IL-1beta level incubated for 24 hrs by ELISA. Format: functional, cell-based. Conditions: dose 5-20 µM.
The subject of data set [16] is Mus musculus. Description: Anti-inflammatory activity in endotoxemia ICR mouse model assessed as decrease in LPS-induced serum IL-1beta level at 10 to 20 mg/kg, IG for 7 days consecutively followed by LPS treatment measured after 24 hrs by ELISA. Format: functional, organism-based. The note with it: dose 10-20 mg/kg, time 8.0 day.
For data set [17], the system named is RAW264.7. Description: Anti-inflammatory activity in mouse RAW264.7 cells assessed as decrease in LPS-induced IL-6 mRNA level incubated for 24 hrs by RT-PCR analysis. The class given is functional, cell-based. Conditions: dose 5-20 µM.
Data set [18] relates to RAW264.7. Description: Anti-inflammatory activity in mouse RAW264.7 cells assessed as decrease in LPS-induced IL-6 level incubated for 24 hrs by ELISA. Format: functional, cell-based. The note with it: dose 5-20 µM.
Data set [19] has as its system RAW264.7. Description: Anti-inflammatory activity in mouse RAW264.7 cells assessed as decrease in LPS-induced PGE2 level incubated for 24 hrs by ELISA. Format: functional, cell-based. The note with it: dose 5-20 µM.
Data set [20] deals with RAW264.7. Description: Anti-inflammatory activity in mouse RAW264.7 cells assessed as decrease in LPS-induced p38 phosphorylation at 5 to 20 uM incubated for 24 hrs by Western blot analysis. Conditions: dose 5-20 µM. Format: functional, cell-based.
Data set [21] has as its system RAW264.7. Description: Effect on total p65 level in cytoplasm of LPS-stimulated mouse RAW264.7 cells at 5 to 20 uM preincubated for 24 hrs followed by LPS treatment for 30 mins by Western blot analysis. Format: functional, cell-based. The note with it: dose 5-20 µM, time 24.5 hrs.
Data set [22] deals with RAW264.7. Description: Anti-inflammatory activity in LPS-stimulated mouse RAW264.7 cells assessed as increase in I-kappa-B-alpha level at 5 to 20 uM preincubated for 24 hrs followed by LPS treatment for 30 mins by Western blot analysis. Format: functional, cell-based. Conditions: dose 5-20 µM, time 24.5 hrs.

Active and inactive are the calls of the source. No cut-off for these calls is given here.

With `Cc1ccc(/C=C/C(=O)N2CCN(C(=O)CC[C@@H](C)[C@H]3CC[C@H]4[C@@H]5[C@@H](O)C[C@@H]6C[C@H](O)CC[C@]6(C)[C@H]5CC[C@]34C)CC2)cc1`, the inhibition at 10 µM in the data set with RAW264.7 [1] is over 50%. Moreover, the result in the data set with RAW264.7 [2], in the data set with RAW264.7 [3], in the data set on RAW264.7 [4], with RAW264.7 [6], in the data set on Mus musculus [7] and in the data set on RAW264.7 [8] was Active. Besides, the outcome in the data set on Mus musculus [10], with RAW264.7 [11], in the data set on Mus musculus [16], in the data set with RAW264.7 [20] and with RAW264.7 [22] was Active. The Activity entry is “Dose-Dependent Effect” with RAW264.7 [5]; “Dose-Dependent Effect” in the data set on RAW264.7 [12]; “Dose-Dependent Effect” with RAW264.7 [13]; “Non-Toxic” in the data set with RAW264.7 [14]; “Dose-Dependent Effect” with RAW264.7 [15]; “Dose-Dependent Effect” with RAW264.7 [17]. Besides, the Activity entry in the data set with RAW264.7 [18] and in the data set on RAW264.7 [19] was “Dose-Dependent Effect” in each case. Moreover, the half-maximal inhibitory concentration (IC50) in the data set with RAW264.7 [9] (RAW264.7, 24 h) was 7.7 µM. In addition, the inhibition result in the data set with RAW264.7 [9] (dose 1.25-20 µM) is “Dose-Dependent Effect”. The outcome in the data set with RAW264.7 [21] was inactive.
